Source: patent US20160280789A1, “METHODS FOR TREATING HEMATOLOGICAL MALIGNANCIES” (CHILDREN'S HOSPITAL LOS ANGELES, priority 2013, published 2016)
Entries after “also recorded” stand apart in the source; their conditions may differ. Like-named read-outs stand apart in the source and are kept apart here.

Assays:
[1] = tested on: BCR-ABL-1+ ITGA6fl/fl cells; experiment: cells; conditions: Mus musculus, 72 h
Procedure: Viability of CreER^T2 and EmptyER^T2 ITGA6^f/f BCR-ABL1^+ CreER^T2 and EmptyER^T2 cells were plated onto tissue culture plates (no further ligand coated) and treated with Tamoxifen (1.5 μM) and Nilotinib (0.02 μM or 0.2 μM) for 1 to 3 days. Cell viability was determined by trypan blue exclusion. Y axis indicates cell viability relative to initial.
Bone marrow cells from ITGA6fl/fl mice (Georges-Labouesse et al.) mice were harvested and retrovirally transformed by BCR-ABL1 (Pear et al.) in the presence of 10 ng IL7 (Peprotech) in Retronectin-(Takara) coated plates. All BCR-ABL1-transformed ALL cells derived from bone marrow of mice were maintained in Iscove's modified Dulbecco's medium (IMDM) with GlutaMAX containing 20% fetal bovine serum (Atlanta Biologica), 100 IU/ml penicillin, 100 μg/ml streptomycin (Invitrogen), and 50 μM 2-mercaptoethanol (Sigma-Aldrich) at 37° C. in a humidified incubator with 5% CO2. After cytokine-independent proliferation, BCR-ABL1 transformed ITGA6fl/fl cells were transduced retrovirally with EmptyERT2 or CreERT2. […] After 1 μg/ml puromycin selection, VLA6 deletion was induced in vitro by addition of 1.0 μM tamoxifen (Sigma-Aldrich). […]

[2] = tested on: ITGA6fl/fl BCR/ABL1+ pre-B ALL cells; experiment: In vivo model of BCR-ABL1-transformed ITGA6fl/fl ALL in NOD/SCID mice, survival with Nilotinib; parameters: species or system mouse
Procedure: A, Bioluminescence imaging was performed at indicated days post-ALL cells injection. […] C, D ITGA6 deletion was confirmed by FACS in BM cells of mice sacrificed at time of death of leukemia. E, Residual leukemia cells were determined in spleen and bone marrow by RT-PCR and F, PCR in the groups EmptyER^T2+Nilotinib and CreER^T2+Nilotinib.
Bone marrow cells from ITGA6fl/fl mice (Georges-Labouesse et al.) mice were harvested and retrovirally transformed by BCR-ABL1 (Pear et al.) in the presence of 10 ng IL7 (Peprotech) in Retronectin-(Takara) coated plates. All BCR-ABL1-transformed ALL cells derived from bone marrow of mice were maintained in Iscove's modified Dulbecco's medium (IMDM) with GlutaMAX containing 20% fetal bovine serum (Atlanta Biologica), 100 IU/ml penicillin, 100 μg/ml streptomycin (Invitrogen), and 50 μM 2-mercaptoethanol (Sigma-Aldrich) at 37° C. in a humidified incubator with 5% CO2. After cytokine-independent proliferation, BCR-ABL1 transformed ITGA6fl/fl cells were transduced retrovirally with EmptyERT2 or CreERT2. […] D-Luciferin (Promega) dissolved in PBS was injected intraperitoneally at a dose of 2.5 mg per mouse 15 minutes before measuring the luminescence signal. […] Mice were monitored for weight loss and other leukemia symptoms. Moribund mice were sacrificed and tissues were analyzed for leukemia cell infiltration to confirm leukemia as the cause of death.
To determine the effect of VLA6 deletion on leukemia progression in vivo, ITGA6 competent ITGA6fl/fl BCR/ABL1+ pre-B (B220+CD19+) CreERT2+ or control transduced ALL cells were lentivirally luciferase labeled and transferred into NOD/SCID mice (FIG. 6A). […] For this purpose, splenic cells and bone marrow cells of leukemia recipient animals were isolated and analyzed for BCR-ABL1 mRNA expression by RT-PCR (FIG. 6E) and BCR-ABL1 expression in genomic DNA by PCR (FIG. 6F).

Cc1cn(-c2cc(NC(=O)c3ccc(C)c(Nc4nccc(-c5cccnc5)n4)c3)cc(C(F)(F)F)c2)cn1 [Nilotinib]
viability at 0.02 µM ([1]; read-out: Viability of leukemia cells, CreERT2 (ITGA6 deleted)): 10.2% | viability at 0.02 µM ([1]; read-out: Viability of leukemia cells, EmptyERT2 (ITGA6 competent)): 83.7% | Median survival time (MST), CreERT2 (ITGA6 deleted) leukemia ([2]; n=5, Tamoxifen-induced in vivo deletion): survived; also recorded: undefined | Median survival time (MST), EmptyERT2 (ITGA6 competent) leukemia ([2]; n=6, days post-leukemia injection): 39.5 days
